According to patent US20260184707A1, “PHARMACEUTICAL COMPOUNDS FOR THE TREATMENT OF COMPLEMENT MEDIATED DISORDERS” (ALEXION PHARMACEUTICALS, INC., priority 2022, published 2026):

target: T1, Human complement C1s enzyme (Homo sapiens, UniProt P09871); assay: Human C1s enzyme assay; type: biochemical; details: human complement C1s enzyme 1.16 nM, substrate Z-L-Lys-SBzl, A405; read-out: IC50 (Stars)
T1 construct: purified from human serum, Complement Technology, Inc; purchased Complement Technology, Inc; host or cells: human serum (plasma-derived native protein)
T1 sequence (P09871 438-688 limits assumed): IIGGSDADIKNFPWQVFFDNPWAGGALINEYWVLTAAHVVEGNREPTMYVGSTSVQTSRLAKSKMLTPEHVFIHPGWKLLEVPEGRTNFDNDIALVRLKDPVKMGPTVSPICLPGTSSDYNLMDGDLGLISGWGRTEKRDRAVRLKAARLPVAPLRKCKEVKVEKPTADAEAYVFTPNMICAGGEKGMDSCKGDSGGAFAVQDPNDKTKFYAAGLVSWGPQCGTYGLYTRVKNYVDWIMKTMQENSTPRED
T1 sequence (P09871 16-437 partner limits assumed): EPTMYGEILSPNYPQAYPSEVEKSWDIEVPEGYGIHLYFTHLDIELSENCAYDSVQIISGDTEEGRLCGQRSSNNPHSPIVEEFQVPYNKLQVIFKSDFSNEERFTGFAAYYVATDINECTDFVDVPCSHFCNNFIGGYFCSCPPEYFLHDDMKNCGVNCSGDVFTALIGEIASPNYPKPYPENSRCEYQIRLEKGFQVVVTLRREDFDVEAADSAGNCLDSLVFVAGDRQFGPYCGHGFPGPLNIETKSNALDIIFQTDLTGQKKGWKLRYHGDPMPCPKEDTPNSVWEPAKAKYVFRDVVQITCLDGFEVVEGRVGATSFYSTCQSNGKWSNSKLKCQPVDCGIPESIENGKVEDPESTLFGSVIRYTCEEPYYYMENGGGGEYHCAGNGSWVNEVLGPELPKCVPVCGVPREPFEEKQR
Description: The […] values of the compounds of Table 1 were determined with the human C1s enzyme assay described below. Other standard complement assays are also available.
Human complement C1s enzyme (purified from human serum, Complement Technology, Inc.) at 1.16 nM final concentration was incubated with test compound at various concentrations for 5 min at room temperature in 50 mM Tris, 1 M NaCl, pH 7.5. A synthetic substrate Z-L-Lys-SBzl and DTNB (Ellman's reagent) were added to final concentrations of 100 μM each. Absorbance at 405 nm (A405) was recorded at 30 second intervals for […] using a microplate spectrophotometer. IC values were calculated by nonlinear regression of complement C1s reaction rates as a function of test compound concentration.
[…]; ND indicates a compound for which the IC50 value is not determined.

Compound	IC50
C[C@@H](Nc1cncn(CC(=O)NCc2cc3cnccc3[nH]2)c1=O)c1coc(-c2ccccc2)n1 [Compound 362, (R)-N-((1H-pyrrolo[3,2-c]pyridin-2-yl)methyl)-2-(6-oxo-5-((1-(2-phenyloxazol-4-yl)-ethyl)amino)pyrimidin-1(6H)-yl)acetamide]	0.1 to 1 µM
O=C(Cn1c(-c2ccccc2)ncc(NC(=O)c2ccc(-c3ccccc3)s2)c1=O)NCc1ccc(Cl)cc1 [Compound 256, N-(1-(2-((4-chlorobenzyl)-amino)-2-oxoethyl)-6-oxo-2-phenyl-1,6-dihydropyrimidin-5-yl)-5-phenylthiophene-2-carboxamide]	> 1 µM
O=C(Cn1c(N2CCCCC2)cnc(N[C@H](CF)c2ccc3oc4ccccc4c3c2)c1=O)NCc1cc2cnccc2[nH]1 [Compound 494, (S)-N-((1H-pyrrolo[3,2-c]pyridin-2-yl)methyl)-2-(3-((1-(dibenzo[b,d]furan-2-yl)-2-fluoroethyl)amino)-2-oxo-6-(piperidin-1-yl)pyrazin-1(2H)-yl)acetamide]	> 1 µM
C[C@@H](Nc1cnc(-c2ccccc2)n(CC(=O)NCc2cc3cnccc3[nH]2)c1=O)c1ccc2c(c1)-c1ccccc1C2(F)F [Compound 359, (R)-N-((1H-pyrrolo[3,2-c]pyridin-2-yl)methyl)-2-(5-((1-(9,9-difluoro-9H-fluoren-3-yl)-ethyl)amino)-6-oxo-2-phenyl-pyrimidin-1(6H)-yl)acetamide]	< 0.1 µM
O=C(Cn1c(-c2ccc(N3CCOCC3)nc2)ncc(NCc2ccc3oc4ccccc4c3c2)c1=O)NCc1cc2cnccc2[nH]1 [Compound 279, N-((1H-pyrrolo[3,2-c]pyridin-2-yl)methyl)-2-(5-((dibenzo [b,d]furan-2-ylmethyl)amino)-2-(6-morpholinopyridin-3-yl)-6-oxopyrimidin-1(6H)-yl)-acetamide]	< 0.1 µM
CO[C@@H]1CO[C@H]2[C@@H]1OC[C@H]2Oc1ccc(-c2ncc(NC(=O)c3cnc(-c4ccccc4)s3)c(=O)n2CC(=O)NCc2cc3cnccc3[nH]2)cc1 [Compound 262, N-(1-(2-(((1H-pyrrolo[3,2-c]pyridine-2-yl)methyl)amino)-2-oxoethyl)-2-(4-(((3R,3aR,6R,6aR)-6-methoxyhexahydrofuro[3,2-b]furan-3-yl)oxy)phenyl)-6-oxo-1,6-dihydropyrimidin-5-yl)-2-phenylthiazole-5-carboxamide]	< 0.1 µM
C[C@@H](Nc1ncc(N2CCOCC2)n(CC(=O)NCc2cc3cnccc3[nH]2)c1=O)c1ccc(-c2ccccc2F)cc1 [Compound 417, (R)-N-((1H-pyrrolo[3,2-c]pyridin-2-yl)methyl)-2-(3-((1-(2′-fluoro-[1,1′-biphenyl]-4-yl)ethyl)amino)-6-morpholino-2-oxopyrazin-1(2H)-yl)acet-amide]	< 0.1 µM
O=C(Cn1c(N2CCOCC2)ncc(NC(=O)c2ccc(Oc3ccccc3)cc2)c1=O)NCc1cc2cnccc2[nH]1 [Compound 410, N-(1-(2-(((1H-pyrrolo[3,2-c]pyridin-2-yl)methyl)amino)-2-oxoethyl)-2-morpholino-6-oxo-1,6-dihydropyrimidin-5-yl)-4-phenoxybenzamide]	< 0.1 µM
O=C(Cn1c(-c2ccccc2)cnc(NC(=O)c2ccc3oc4ccccc4c3c2)c1=O)NCc1cc2cnccc2[nH]1 [Compound 101, N-(4-(2-(((1H-pyrrolo[3,2-c]pyridin-2-yl)methyl)amino)-2-oxoethyl)-3-oxo-5-phenyl-3,4-dihydropyrazin-2-yl)dibenzo [b,d]furan-2-carboxamide]	< 0.1 µM
COc1ccc(-c2ncc(N[C@H](C)c3ccc4oc5ccccc5c4c3)c(=O)n2CC(=O)NCc2cc3cnccc3[nH]2)cc1 [Compound 248, (R)-N-((1H-pyrrolo[3,2-c]pyr-idin-2-yl)methyl)-2-(5-((1-(dibenzo[b,d]furan-2-yl)ethyl)-amino)-2-(4-methoxyphenyl)-6-oxopyrimidin-1(6H)-yl)-acetamide]	< 0.1 µM

Continued, values first:

IC50	Compound
< 0.1 µM	O=C(Cn1c(-c2ccccc2)ncc(NC(=O)Cc2ccc(Oc3ccccc3)cc2)c1=O)NCc1cc2cnccc2[nH]1 [Compound 38, N-((1H-pyrrolo[3,2-c]pyridin-2-yl)methyl)-2-(6-oxo-5-(2-(4-phenoxyphenyl)acetamido)-2-phenylpyrimidin-1(6H)-yl)-acetamide]
< 0.1 µM	O=C(Cn1c(-c2ccc(O[C@@H]3CO[C@H]4[C@@H]3OC[C@H]4O)cc2)ncc(NCCCc2ccccc2)c1=O)NCc1cc2cnccc2[nH]1 [Compound 125, N-((1H-pyrrolo[3,2-c]pyridine-2-yl)methyl)-2-(2-(4-(((3R,3aR,6R,6aR)-6-hydroxyhexahydrofuro[3,2-b]furan-3-yl)oxy)phenyl)-6-oxo-5-((3-phenylpropyl)amino)pyrimidin-1(6H)-yl)acetamide]
< 0.1 µM	O=C(Cn1c(-c2ccccc2)ncc(NC(=O)c2ccc(Oc3ccc(F)cc3)cc2)c1=O)NCc1cc2cnccc2[nH]1 [Compound 52, N-(1-(2-(((1H-pyrrolo[3,2-c]pyridin-2-yl)methyl)amino)-2-oxoethyl)-6-oxo-2-phenyl-1,6-dihydropyrimidin-5-yl)-4-(4-fluorophenoxy)benzamide]
< 0.1 µM	CS(=O)(=O)c1ccc(-c2ncc(NCCCc3ccccc3)c(=O)n2CC(=O)NCc2cc3cnccc3[nH]2)cc1 [Compound 69, N-((1H-pyrrolo[3,2-c]pyridine-2-yl)methyl)-2-(2-(4-(methylsulfonyl)phenyl)-6-oxo-5-((3-phenylpropyl)amino)pyrimidin-1(6H)-yl)acetamide]
< 0.1 µM	O=C(Cn1c(-c2ccccc2)ncc(NCCCO[C@@H]2CO[C@H]3[C@@H]2OC[C@H]3O)c1=O)NCc1cc2cnccc2[nH]1 [Compound 190, N-((1H-pyrrolo[3,2-c]pyridine-2-yl)methyl)-2-(5-((3-(((3R,3aR,6R,6aR)-6-hydroxyhexahydrofuro[3,2-b]furan-3-yl)oxy)propyl)amino)-6-oxo-2-phenylpyrimidin-1(6H)-yl)acetamide]
< 0.1 µM	O=C(Cn1c(-c2ccccc2)ncc(NC(=O)c2ccc(-c3ccccc3)s2)c1=O)NCc1cc2cnccc2[nH]1 [Compound 110, N-(1-(2-(((1H-pyrrolo[3,2-c]pyridin-2-yl)methyl)amino)-2-oxoethyl)-6-oxo-2-phenyl-1,6-dihydropyrimidin-5-yl)-5-phenylthiophene-2-carbox-amide]
< 0.1 µM	C[C@@H](Nc1ncc(N2CCOCC2)n(CC(=O)NCc2cc3cnccc3[nH]2)c1=O)c1ccc2oc3ccccc3c2c1 [Compound 407, (R)—N-((1H-pyrrolo[3,2-c]pyridine-2-yl)methyl)-2-(3-((1-(dibenzo[b,d]furan-2-yl)ethyl)amino)-6-morpholino-2-oxopyrazin-1(2H)-yl)acetamide]
< 0.1 µM	O=C(Cn1c(C2=CCCCC2)ncc(NCc2ccc3oc4ccccc4c3c2)c1=O)NCc1cc2cnccc2[nH]1 [Compound 241, N-((1H-pyrrolo[3,2-c]pyridin-2-yl)methyl)-2-(2-(cyclohex-1-en-1-yl)-5-((dibenzo[b,d]furan-2-ylmethyl)amino)-6-oxopyrimidin-1(6H)-yl)acet-amide]
< 0.1 µM	O=C(Cn1c(-c2ccccc2)cnc(NCc2ccc(-c3ccccc3)cc2)c1=O)NCc1cc2cnccc2[nH]1 [Compound 60, N-((1H-pyrrolo[3,2-c]pyridin-2-yl)methyl)-2-(3-(([1,1′-biphenyl]-4-ylmethyl)amino)-2-oxo-6-phenylpyrazin-1(2H)-yl)acetamide]
